Measured values: PubChem BioAssay AID1963965 (Molecular Pharmacology Branch, DTP, NCI, 2024)

Tested on: 996289-038-R-J1-PDC spheroid viability
Test: Anticancer human tumor 996289-038-R-J1-PDC patient-derived colon adenocarcinoma cell line growth inhibition [PI3K]
Conditions: spheroids with HUVEC and MSC; for IC50: curve of first compound; for viability, T/C: stronger effect = lower value
Summary of the method: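 Combination activity was assessed by viability in multicellular tumor spheroids carrying HUVEC and MSC components. Agents were tested with PI3K inhibitors from a Cmax-based top dose (or 10 microM) downward in half-log increments.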

[1] = second compound 0.0316 µM, first compound 0.0316 µM
[2] = second compound 0.0316 µM, first compound 0.1 µM
[3] = second compound 0.1 µM, first compound 0.0316 µM
[4] = second compound 0.1 µM, first compound 0.1 µM
[5] = second compound 0.316 µM, first compound 0.0316 µM
[6] = second compound 0.316 µM, first compound 0.1 µM
[7] = second compound 1 µM, first compound 0.0316 µM
[8] = second compound 1 µM, first compound 0.1 µM
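Also: spheroids exposed to compounds for seven days before viability read.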
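For viability, T/C in this document: luminescence used as a proxy for viable cell amount; percent viability relative to DMSO vehicle control as 100%.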

CC(=O)c1c(C)c2cnc(Nc3ccc(N4CCNCC4)cn3)nc2n(C2CCCC2)c1=O + CC(Nc1ncnc2nc[nH]c12)c1cc2cccc(Cl)c2c(=O)n1-c1ccccc1
IC50 (second compound 0.0316 µM): > 0.1 µM
IC50 (second compound 0.1 µM): > 0.1 µM
IC50 (second compound 0.316 µM): > 0.1 µM
IC50 (second compound 1 µM): > 0.1 µM
IC50 (second compound 3.16 µM): > 0.1 µM
IC50 (second compound 10 µM): > 0.1 µM
viability, T/C (second compound 0.0316 µM, first compound 0.000316 µM): 104%
viability, T/C (second compound 0.0316 µM, first compound 0.001 µM): 96.3%
viability, T/C (second compound 0.0316 µM, first compound 0.00316 µM): 93.2%
viability, T/C (second compound 0.0316 µM, first compound 0.01 µM): 92%
viability, T/C [1]: 99.2%
viability, T/C [2]: 84.2%
viability, T/C (second compound 0.1 µM, first compound 0.000316 µM): 96.4%
viability, T/C (second compound 0.1 µM, first compound 0.001 µM): 97.5%
viability, T/C (second compound 0.1 µM, first compound 0.00316 µM): 101%
viability, T/C (second compound 0.1 µM, first compound 0.01 µM): 102%
viability, T/C [3]: 107%
viability, T/C [4]: 90.1%
viability, T/C (second compound 0.316 µM, first compound 0.000316 µM): 93.8%
viability, T/C (second compound 0.316 µM, first compound 0.001 µM): 105%
viability, T/C (second compound 0.316 µM, first compound 0.00316 µM): 102%
viability, T/C (second compound 0.316 µM, first compound 0.01 µM): 97.7%
viability, T/C [5]: 108%
viability, T/C [6]: 86.7%
viability, T/C (second compound 1 µM, first compound 0.000316 µM): 106%
viability, T/C (second compound 1 µM, first compound 0.001 µM): 102%
viability, T/C (second compound 1 µM, first compound 0.00316 µM): 90.3%
viability, T/C (second compound 1 µM, first compound 0.01 µM): 95.2%
viability, T/C [7]: 92.4%
viability, T/C [8]: 89.8%
viability, T/C (second compound 3.16 µM, first compound 0.000316 µM): 102%
viability, T/C (second compound 3.16 µM, first compound 0.001 µM): 91.3%
viability, T/C (second compound 3.16 µM, first compound 0.00316 µM): 88.4%
viability, T/C (second compound 3.16 µM, first compound 0.01 µM): 95.9%
viability, T/C (second compound 3.16 µM, first compound 0.0316 µM): 103%
viability, T/C (second compound 3.16 µM, first compound 0.1 µM): 84.5%
viability, T/C (second compound 10 µM, first compound 0.000316 µM): 87.5%
viability, T/C (second compound 10 µM, first compound 0.001 µM): 84.4%
viability, T/C (second compound 10 µM, first compound 0.00316 µM): 88.2%
viability, T/C (second compound 10 µM, first compound 0.01 µM): 86.7%
viability, T/C (second compound 10 µM, first compound 0.0316 µM): 104%
viability, T/C (second compound 10 µM, first compound 0.1 µM): 72.7%

Cc1nc(NC(=O)N2CCCC2C(N)=O)sc1-c1ccnc(C(C)(C)C(F)(F)F)c1 (stereo not given)
viability, T/C (compound 0.0316 µM): 99.9% [middle of 8 runs]
viability, T/C (compound 0.1 µM): 94.7% [middle of 8 runs]
viability, T/C (compound 0.316 µM): 85.8% [middle of 8 runs]
viability, T/C (compound 1 µM): 73.9% [middle of 8 runs]
viability, T/C (compound 3.16 µM): 61.8% [middle of 8 runs]
viability, T/C (compound 10 µM): 52.6% [middle of 8 runs]

CCCS(=O)(=O)Nc1ccc(F)c(C(=O)c2c[nH]c3ncc(-c4ccc(Cl)cc4)cc23)c1F + COc1c(OCCCN2CCOCC2)ccc2c3n(c(=NC(=O)c4cnc(N)nc4)nc12)CCN3
IC50 (second compound 0.00316 µM): 6.03 µM
IC50 (second compound 0.01 µM): 6.09 µM
IC50 (second compound 0.0316 µM): 5.1 µM
IC50 (second compound 0.1 µM): 1.77 µM
IC50 (second compound 0.316 µM): < 0.0316 µM
IC50 (second compound 1 µM): < 0.0316 µM
viability, T/C (second compound 0.00316 µM, first compound 0.0316 µM): 98.9%
viability, T/C (second compound 0.00316 µM, first compound 0.1 µM): 81.6%
viability, T/C (second compound 0.00316 µM, first compound 0.316 µM): 94.6%
viability, T/C (second compound 0.00316 µM, first compound 1 µM): 108%
viability, T/C (second compound 0.00316 µM, first compound 3.16 µM): 87.5%
viability, T/C (second compound 0.00316 µM, first compound 10 µM): 19.9%
viability, T/C (second compound 0.01 µM, first compound 0.0316 µM): 96.4%
viability, T/C (second compound 0.01 µM, first compound 0.1 µM): 92.6%
viability, T/C (second compound 0.01 µM, first compound 0.316 µM): 87.4%
viability, T/C (second compound 0.01 µM, first compound 1 µM): 85.7%
viability, T/C (second compound 0.01 µM, first compound 3.16 µM): 90.6%
viability, T/C (second compound 0.01 µM, first compound 10 µM): 19.4%
viability, T/C [1]: 71%
viability, T/C [2]: 78.2%
viability, T/C (second compound 0.0316 µM, first compound 0.316 µM): 72.5%
viability, T/C (second compound 0.0316 µM, first compound 1 µM): 80.2%
viability, T/C (second compound 0.0316 µM, first compound 3.16 µM): 71.1%
viability, T/C (second compound 0.0316 µM, first compound 10 µM): 19.8%
viability, T/C [3]: 63.5%
viability, T/C [4]: 49.7%
viability, T/C (second compound 0.1 µM, first compound 0.316 µM): 66.9%
viability, T/C (second compound 0.1 µM, first compound 1 µM): 53.4%
viability, T/C (second compound 0.1 µM, first compound 3.16 µM): 44.4%
viability, T/C (second compound 0.1 µM, first compound 10 µM): 12.2%
viability, T/C [5]: 32.3%
viability, T/C [6]: 42.4%
viability, T/C (second compound 0.316 µM, first compound 0.316 µM): 35.9%
viability, T/C (second compound 0.316 µM, first compound 1 µM): 36.7%
viability, T/C (second compound 0.316 µM, first compound 3.16 µM): 26%
viability, T/C (second compound 0.316 µM, first compound 10 µM): 8.03%
viability, T/C [7]: 19.9%
viability, T/C [8]: 22.4%
viability, T/C (second compound 1 µM, first compound 0.316 µM): 20.2%
viability, T/C (second compound 1 µM, first compound 1 µM): 15.9%
viability, T/C (second compound 1 µM, first compound 3.16 µM): 14%
viability, T/C (second compound 1 µM, first compound 10 µM): 6.42%
